For this test, the system named is horse erythrocytes. The experiment in a line: Hemolytic plate assay (erythrocyte lysis, decrease in absorbance). It counts as cell-based. The note with it: FIG. 1. On the procedure: The HIV-1 proaerolysin variant generated in EXAMPLE 3 was incubated with varying concentrations of an HIV protease-containing sample in a microtiter plate (HIV-1 protease obtained from BACHEM, Torrance, Calif.). The HIV-1 proaerolysin variant (1.5×10^−6 M) was diluted 1:16 in PBS to a final volume of 100 μl and added to the first column of wells of a 96 well plate. Various concentrations of HIV-protease containing samples, ranging from 10 to 500 ng of HIV-1 protease in a final volume of 100 μl, were added to each of the 8 wells of the first column of the microtiter plate, and the plate incubated for four hours.
After incubation, the samples were serially diluted 1:2 by adding 100 μl of PBS to the first column of wells, mixing and transferring 100 μl sequentially to each of the wells in every row. Then, 100 μl of washed horse erythrocytes were added to all wells so that the final erythrocyte concentration was 0.4%. […]

In the case of “native proaerolysin: precursor form of the aerolysin toxin, a 52 kDa protein produced by bacteria in the genus Aeromonas”, the “absorbance (erythrocyte lysis)” value (native proaerolysin activated with trypsin) is “decrease in absorbance”.

Take “HIV-1 proaerolysin variant: proaerolysin variant in which the normal activation sequence KVRRAR was replaced with the HIV-1 protease sensitive sequence QNYPIV”: the “absorbance (erythrocyte lysis)” value was “decrease in absorbance” (HIV variant of proaerolysin activated with HIV protease, absorbance at 600 nm, listed as HIV variant of proaerolysin) and “lysis of the erythrocytes” (HIV variant of proaerolysin activated with HIV protease, absorbance at 600 nm, listed as proaerolysin variant).

These data come from patent US20050266512A1, “Detection of proteases and screening for protease inhibitors” (priority 2000, published 2005).
